Measurements: US6737383B1, “Herbicidal oxadiazolidines” (priority 1999, dated 2004)

Experiments:
[1] = test system: bedstraw; test: Test B pre/postemergence bedstraw; type: in vivo, Galium aparine; settings: Preemergence
Summary of the method: (§1)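 Response is a visual 0-to-10 score relative to untreated plants, where 0 means no effect and 10 means complete control, taken twelve to sixteen days after application. Treatments went onto soil at planting and onto foliage of 1- to 4-leaf plants, using a surfactant-containing non-phytotoxic solvent.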

[2] = test system: blackgrass; test: Test B pre/postemergence blackgrass; type: in vivo, Alopecurus myosuroides; settings: Preemergence
Summary of the method: as §1

[3] = test system: surinam grass; test: Test B pre/postemergence surinam grass; type: in vivo, Brachiaria decumbens; settings: Preemergence
Summary of the method: as §1

[4] = test system: cocklebur; test: Test B pre/postemergence cocklebur; type: in vivo, Xanthium strumarium; settings: Preemergence
Summary of the method: as §1

[5] = test system: corn; test: Test B pre/postemergence corn; type: in vivo, Zea mays; settings: Preemergence
Summary of the method: as §1

[6] = test system: crabgrass; test: Test B pre/postemergence crabgrass; type: in vivo, Digitaria sanguinalis; settings: Preemergence
Summary of the method: as §1

[7] = test system: giant foxtail; test: Test B pre/postemergence giant foxtail; type: in vivo, Setaria faberii; settings: Preemergence
Summary of the method: as §1

[8] = test system: morningglory; test: Test B pre/postemergence morningglory; type: in vivo, Ipomoea hederacea; settings: Preemergence
Summary of the method: as §1

[9] = test system: pigweed; test: Test B pre/postemergence pigweed; type: in vivo, Amaranthus retroflexus; settings: Preemergence
Summary of the method: as §1

[10] = test system: rape; test: Test B pre/postemergence rape; type: in vivo, Brassica napus; settings: Preemergence
Summary of the method: as §1

[11] = test system: soybean; test: Test B pre/postemergence soybean; type: in vivo, Glycine max; settings: Preemergence
Summary of the method: as §1

[12] = test system: sugar beet; test: Test B pre/postemergence sugar beet; type: in vivo, Beta vulgaris; settings: Preemergence
Summary of the method: as §1

[13] = test system: velvetleaf; test: Test B pre/postemergence velvetleaf; type: in vivo, Abutilon theophrasti; settings: Preemergence
Summary of the method: as §1

[14] = test system: wheat; test: Test B pre/postemergence wheat; type: in vivo, Triticum aestivum; settings: Preemergence
Summary of the method: as §1

[15] = test system: wild oat; test: Test B pre/postemergence wild oat; type: in vivo, Avena fatua; settings: Preemergence
Summary of the method: as §1

[16] = test system: purple nutsedge; test: Test B pre/postemergence purple nutsedge; type: in vivo, Cyperus rotundus; settings: Preemergence
Summary of the method: as §1

[17] = test system: rice; test: Test B flood test rice; type: in vivo, Oryza sativa
Summary of the method: (§2)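 Each value is a visual injury score relative to controls, with 10 meaning complete control and 0 no effect. Evaluation took place twelve to sixteen days after the 2-leaf-stage plants were treated and kept in the greenhouse.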

[18] = test system: smallflower flatsedge; test: Test B flood test smallflower flatsedge; type: in vivo, Cyperus difformis
Summary of the method: as §2

[19] = test system: duck salad; test: Test B flood test duck salad; type: in vivo, Heteranthera limosa
Summary of the method: as §2

[20] = test system: bamyardgrass; test: Test B flood test barnyardgrass; type: in vivo, Echinochloa crus-galli
Summary of the method: as §2

[21] = Rate 62 g/ha, scale of 0 to 10 where 0 is no effect and 10 is complete control
[22] = Rate 125 g/ha, scale of 0 to 10 where 0 is no effect and 10 is complete control
[23] = Rate 250 g/ha, scale 0 (no effect) to 10 (complete control)
[24] = Rate 500 g/ha, scale of 0 to 10 where 0 is no effect and 10 is complete control
[25] = Pre-emergence, Rate 62 g/ha, scale 0 to 10, 0 is no effect, 10 is complete control
[26] = Rate 125 g/ha, Pre-emergence section (flood test species), scale 0 to 10, 0 no effect, 10 complete control
[27] = Rate 250 g/ha, Pre-emergence (flood test species), scale 0 to 10, 0 is no effect, 10 is complete control
[28] = Rate 500 g/ha, Pre-emergence section of Table B, 0 to 10 scale (0 no effect, 10 complete control)

For `CC(C)N(C(=O)n1oc(=O)n(CC2CCCCO2)c1=O)c1ccc(F)cc1F` (stereo not shown) [Compound 715], the “Bedstraw plant response rating” value [1, 21] was 0, the “Plant response rating, Bedstraw” value [1, 22] was 0 and the “Bedstraw plant response rating” value [1, 23] was 0. The “Blackgrass plant response rating” value [2, 21] was 9, the “Plant response rating, Blackgrass” value [2, 22] was 9 and the “Blackgrass plant response rating” value [2, 23] was 9. The “Plant response rating, Blackgrass” value [2, 24] was 10, the “B. signalgrass plant response rating” value [3, 21] was 8 and the “Plant response rating, B. signalgrass” value [3, 22] was 8. The “B. signalgrass plant response rating” value [3, 23] was 9, the “Plant response rating, B. signalgrass” value [3, 24] was 10 and the “Cocklebur plant response rating” value [4, 21] was 0. For the same compound, the “Plant response rating, Cocklebur” value [4, 22] was 0, the “Cocklebur plant response rating” value [4, 23] was 0 and the “Plant response rating, Cocklebur” value [4, 24] was 0. For the same compound, the “Corn plant response rating” value [5, 21] was 0, the “Plant response rating, Corn” value [5, 22] was 0 and the “Corn plant response rating” value [5, 23] was 2. The “Crabgrass plant response rating” value [6, 21] was 9, the “Plant response rating, Crabgrass” value [6, 22] was 9 and the “Crabgrass plant response rating” value [6, 23] was 10. The “Giant foxtail plant response rating” value [7, 21] was 10, the “Plant response rating, Giant foxtail” value [7, 22] was 10 and the “Giant foxtail plant response rating” value [7, 23] was 10. For the same compound, the “Morningglory plant response rating” value [8, 21] was 0, the “Plant response rating, Morningglory” value [8, 22] was 1 and the “Morningglory plant response rating” value [8, 23] was 2. For the same compound, the “Redroot pigweed plant response rating” value [9, 21] was 8, the “Plant response rating, Redroot pigweed” value [9, 22] was 9 and the “Redroot pigweed plant response rating” value [9, 23] was 10. The “Rape plant response rating” value [10, 21] was 2, the “Plant response rating, Rape” value [10, 22] was 8 and the “Rape plant response rating” value [10, 23] was 8. For the same compound, the “Soybean plant response rating” value [11, 21] was 0, the “Plant response rating, Soybean” value [11, 22] was 0 and the “Soybean plant response rating” value [11, 23] was 0. For the same compound, the “Sugarbeets plant response rating” value [12, 21] was 4, the “Plant response rating, Sugarbeets” value [12, 22] was 5 and the “Sugarbeets plant response rating” value [12, 23] was 7. The “Velvetleaf plant response rating” value [13, 21] was 0, the “Plant response rating, Velvetleaf” value [13, 22] was 5 and the “Velvetleaf plant response rating” value [13, 23] was 6. The “Wheat plant response rating” value [14, 21] was 0, the “Plant response rating, Wheat” value [14, 22] was 0 and the “Wheat plant response rating” value [14, 23] was 3. The “Wild oats plant response rating” value [15, 21] was 9, the “Plant response rating, Wild oats” value [15, 22] was 9 and the “Wild oats plant response rating” value [15, 23] was 9. For the same compound, the “Nutsedge plant response rating” value [16, 21] was 0, the “Plant response rating, Nutsedge” value [16, 22] was 0 and the “Nutsedge plant response rating” value [16, 23] was 0. The “Rice plant response rating” value [17, 25] was 0, the “Rice plant response rating” value [17, 26] was 0 and the “Rice plant response rating” value [17, 27] was 0. For the same compound, the “Rice plant response rating” value [17, 28] was 0, the “S. Flatsedge plant response rating” value [18, 25] was 0 and the “S. Flatsedge plant response rating” value [18, 26] was 0. For the same compound, the “S. Flatsedge plant response rating” value [18, 27] was 0, the “S. Flatsedge plant response rating” value [18, 28] was 0 and the “Ducksalad plant response rating” value [19, 25] was 0. For the same compound, the “Ducksalad plant response rating” value [19, 26] was 0, the “Ducksalad plant response rating” value [19, 27] was 0 and the “Ducksalad plant response rating” value [19, 28] was 0. The “Barnyardgrass plant response rating” value [20, 25] was 0, the “Barnyardgrass plant response rating” value [20, 26] was 0 and the “Barnyardgrass plant response rating” value [20, 27] was 0. The “Barnyardgrass plant response rating” value [20, 28] was 0.
